Reference: article PMC5655044, “Reducing Antibacterial Development Risk for GSK1322322 by Exploring Potential Human Dose Regimens in Nonclinical Efficacy Studies Using Immunocompetent Rats” (Antimicrobial Agents and Chemotherapy, 2017)
In brackets after ≈: the same amount, converted by molar mass. Several values for one entry are separate records, joined by “and”; a condition that tells them apart may be missing. Equal values may be shown once. Read-outs that look alike come from different tables or passages of the source.

Columns and labels:
H. influenzae [1] = assay: MIC by CLSI broth microdilution, H. influenzae isolates; assay type: cell-based, Haemophilus influenzae; design: key to Susceptibility category (superscript to MIC): R, resistant; S, susceptible; NS, nonsusceptible (resistance not defined); conditions: for MIC: Haemophilus influenzae
Procedure: (§1) The strains chosen for these studies were clinical isolates from the GSK collection. They were selected on the basis of their desired susceptibility to GSK1322322, resistance phenotype, proven ability to produce robust infections in the rat infection models used in the present study, and previous validation in the models using positive- and negative-control antimicrobials (data on file). MICs were determined using the Clinical and Laboratory Standards Institute-recommended standards for broth microdilution ([24]) and are shown in Table 2. The MIC assay was repeated multiple times for each isolate, and results were consistent (within an accepted variation of ±1 dilution) across assays.

S. pneumoniae [2] = assay: MIC by CLSI broth microdilution, S. pneumoniae isolates; assay type: cell-based, Streptococcus pneumoniae; design: key to Susceptibility category (superscript to MIC): R, resistant; S, susceptible; NS, nonsusceptible (resistance not defined); conditions: for MIC: Streptococcus pneumoniae
Procedure: as §1

S. aureus [3] = assay: Rat model of S. aureus abscess with recreated human exposure profiles; assay type: in vivo; conditions: recreated AZM 1,000/500-mg profile, all three (macrolide-resistant) S. aureus isolates
Procedure: Rats were also anesthetized as described above for establishment of the abscess infection model. A subcutaneous groin abscess was created by injecting 1 ml of the bacterial suspension in semisolid nutrient agar subcutaneously into the loose skin of the right groin area. The final inoculum for the S. aureus strains utilized ranged from 6.4 to 7.2 log10 CFU/rat.
(§2) Solutions were freshly prepared each day.
One set of rats was euthanized at 1 h postinfection to establish the baseline bacterial burden at the time that dosing was initiated. All remaining animals were euthanized at 96 h postinfection. Euthanasia was achieved by carbon dioxide overdose, and infected tissues were excised aseptically and homogenized in 1 ml PBS using a laboratory blender (Stomacher 80; Seward Ltd., Worthing, West Sussex, UK). The lungs were removed whole and blotted to remove excess blood prior to processing. Abscesses were excised intact by removing all surrounding skin and tissue to ensure collection of the entire infected area along with the complete abscess itself. […] The colonies were counted following overnight incubation at 37°C, and the limit of detection was ≤1.7 log10 CFU/tissue. […]

S. pneumoniae [4] = assay: Rat model of S. pneumoniae pneumonia with recreated human exposure profiles; assay type: in vivo; conditions: for Reduction in bacterial burden compared with controls at baseline: LVX- and AZM-resistant S. pneumoniae isolate, recreated human profiles (LVX 500 mg, AZM 1,000/500 mg once daily)
Procedure: (§3) The respiratory tract infection model was performed as previously described by Hoover et al. with slight modifications ([25]). Briefly, rats were anesthetized with a cocktail containing ketamine hydrochloride (Ketaset; 40 mg/kg) and xylazine (Rompun; 5 mg/kg) via intramuscular injection of 150 μl. The infection was induced by instilling 200 μl of the bacterial suspension in cooled, molten nutrient agar directly into the left lung via nonsurgical intratracheal intubation. As described in detail by Hoover et al., the use of agar for the inoculum boosts the ability of these organisms to establish infection in immunocompetent animals ([25]). The final inoculum ranged from 5.7 to 6.2 log10 CFU/rat for S. pneumoniae and 6.2 to 7.5 log10 CFU/rat for H. influenzae.
as §2
(§4) One set of rats was euthanized at 1 h postinfection to establish the baseline bacterial burden at the time that dosing was initiated. All remaining animals were euthanized at 96 h postinfection. Euthanasia was achieved by carbon dioxide overdose, and infected tissues were excised aseptically and homogenized in 1 ml PBS using a laboratory blender (Stomacher 80; Seward Ltd., Worthing, West Sussex, UK). The lungs were removed whole and blotted to remove excess blood prior to processing. Abscesses were excised intact by removing all surrounding skin and tissue to ensure collection of the entire infected area along with the complete abscess itself. For enumeration of viable bacterial numbers, 10-fold serial dilutions were prepared in PBS and triplicate samples of 20 μl each were inoculated onto Trypticase soy agar supplemented with 5% sheep's blood (S. pneumoniae and S. aureus) or chocolate agar (H. influenzae) by a modified Miles-Misra technique ([27], [28]), using a Hamilton Microlab AT 2 Plus system. The colonies were counted following overnight incubation at 37°C, and the limit of detection was ≤1.7 log10 CFU/tissue.
(§5) The outcome measure for efficacy was the number of bacteria isolated from the infected tissues (number of log10 CFU per lungs or number of log10 CFU per abscess) at the conclusion of the study. Results are presented either as group means or as the change in the number of CFU from that at the baseline with associated standard errors of the means (SEM) for the difference. Statistical analysis was performed using the Student t test with a significance level of 0.05.

H. influenzae [5] = assay: Rat model of H. influenzae pneumonia with recreated human exposure profiles; assay type: in vivo; conditions: for Log10 reductions versus the levels at the baseline: 96 h
Procedure: as §3, §2, §4, §5

S. aureus [6] = assay: MIC by CLSI broth microdilution, S. aureus isolates; assay type: cell-based, Staphylococcus aureus; design: key to Susceptibility category (superscript to MIC): R, resistant; S, susceptible; NS, nonsusceptible (resistance not defined); conditions: for MIC: Staphylococcus aureus
Procedure: as §1

[7] = cited from earlier work; for AUC0–t Human / Cmax Human: estimated from published oral PK data; for AUC from 0 to 12 h postdosing: human
[8] = design: method as in PMID 24189245; conditions: healthy volunteers; cited from earlier work
[9] = Blood versus plasma concentrations, rat; assay type: in vitro ADME; conditions: rat (data on file)
[10] = Blood versus plasma concentrations, human; assay type: in vitro ADME; conditions: human (data on file)
[11] = Epithelial lining fluid penetration in infected rats; assay type: in vivo; conditions: rat, epithelial lining fluid (total drug) / plasma (free drug); infected rats (data on file); read-out: Ratio of the total drug epithelial lining fluid AUC to the free drug plasma AUC
[12] = susceptible S. pneumoniae strain, recreated human profiles, bacterial numbers reduced to below or close to the limit of detection

SMILES | Susceptibility category (superscript to MIC) (S. aureus [6]; S. aureus PVL-2) | Susceptibility category (superscript to MIC) (S. aureus [6]; S. aureus X32601) | MIC (S. aureus [6]; S. aureus PVL-2) | MIC (S. aureus [6]; S. aureus X32601) | Susceptibility category (superscript to MIC) (H. influenzae [1]; H. influenzae 511343) | Susceptibility category (superscript to MIC) (H. influenzae [1]; H. influenzae 1302002H) | Susceptibility category (superscript to MIC) (H. influenzae [1]; H. influenzae H128) | MIC (H. influenzae [1]; H. influenzae 511343) | MIC (H. influenzae [1]; H. influenzae 1302002H) | MIC (H. influenzae [1]; H. influenzae H128) | Susceptibility category (superscript to MIC) (S. pneumoniae [2]; S. pneumoniae ERY2) | Susceptibility category (superscript to MIC) (S. pneumoniae [2]; S. pneumoniae L11259) | Susceptibility category (superscript to MIC) (S. pneumoniae [2]; S. pneumoniae TPS3) | MIC (S. pneumoniae [2]; S. pneumoniae ERY2) | MIC (S. pneumoniae [2]; S. pneumoniae L11259) | MIC (S. pneumoniae [2]; S. pneumoniae TPS3) | Reduction in bacterial burden compared with controls at baseline (S. pneumoniae [4]; 96 h) | Effect on bacterial burden (S. pneumoniae [4]; [12]) | Susceptibility category (superscript to MIC) (S. aureus [6]; S. aureus A-24) | MIC (S. aureus [6]; S. aureus A-24) | other results
CC[C@H]1OC(=O)[C@H](C)[C@@H](O[C@H]2C[C@@](C)(OC)[C@@H](O)[C@H](C)O2)[C@H](C)[C@@H](O[C@@H]2O[C@H](C)C[C@H](N(C)C)[C@H]2O)[C@](C)(O)C[C@@H](C)CN(C)[C@H](C)[C@@H](O)[C@]1(C)O [AZM, azithromycin] | R | R | > 64 µg/mL | > 64 µg/mL | S | S | S | 4 µg/mL (≈ 5.34 µM) | 2 µg/mL (≈ 2.67 µM) | 0.5 µg/mL (≈ 0.668 µM) | R | S | R | 16 µg/mL (≈ 21.4 µM) | 0.03 µg/mL (≈ 0.0401 µM) | 4 µg/mL (≈ 5.34 µM) | did not demonstrate any reduction in bacterial burden | highly effective | R | > 64 µg/mL | Efficacy (S. aureus [3]): ineffective; Effect on bacterial burden (S. pneumoniae [4]; second AZM-resistant S. pneumoniae isolate, recreated AZM 1,000/500 mg profile, 96 h): no effect; Log10 reductions versus the levels at the baseline (H. influenzae [5]; recreated AZM 1,000-mg loading then 500-mg profile once daily, two of three H. influenzae isolates): 1.2 log10 CFU/lungs and 1.4 log10 CFU/lungs; Efficacy (H. influenzae [5]; recreated AZM 1,000/500-mg profile, H. influenzae isolate with AZM MIC of 4 mg/liter): ineffective; AUC0–t Human ([7]; 1,000/500 mg oral steady-state profile, 24 h interval): 4.9 µg·h/mL; Cmax Human ([7]; 1,000/500 mg oral steady-state profile): 0.5 µg/mL
Cc1nc(NNC(=O)[C@H](CC2CCCC2)CN(O)C=O)c(F)c(N2CCN3CCOC[C@@H]3C2)n1 [GSK1322322] |  |  | 4 µg/mL (≈ 8.34 µM) | 1 µg/mL (≈ 2.09 µM) |  |  |  | 4 µg/mL (≈ 8.34 µM) | 4 µg/mL (≈ 8.34 µM) | 2 µg/mL (≈ 4.17 µM) |  |  |  | 0.5 µg/mL (≈ 1.04 µM) | 2 µg/mL (≈ 4.17 µM) | 0.5 µg/mL (≈ 1.04 µM) |  |  |  | 4 µg/mL (≈ 8.34 µM) | Ratio of the total drug epithelial lining fluid AUC to the free drug plasma AUC [8]: 3.5; Blood and plasma concentrations compared [9]: similar; Blood and plasma concentrations compared [10]: similar; Kp [11]: 3.3
CC(=O)NC[C@H]1CN(c2ccc(N3CCOCC3)c(F)c2)C(=O)O1 [LZD, linezolid] | S | S | 2 µg/mL (≈ 5.93 µM) | 1 µg/mL (≈ 2.96 µM) |  |  |  |  |  |  |  |  |  |  |  |  |  |  | S | 4 µg/mL (≈ 11.9 µM) | AUC0–t Human ([7]; 625 mg oral steady state, 12 h interval): 147 µg·h/mL; AUC from 0 to 12 h postdosing ([7]; LZD 625 mg oral): 147 µg·h/mL; AUC from 0 to 12 h postdosing ([7]; LZD 600-mg approved oral dose): 138 µg·h/mL

Second part, led by results:

Susceptibility category (superscript to MIC) (S. aureus [6]; S. aureus PVL-2) | Susceptibility category (superscript to MIC) (S. aureus [6]; S. aureus X32601) | MIC (S. aureus [6]; S. aureus PVL-2) | MIC (S. aureus [6]; S. aureus X32601) | SMILES | Susceptibility category (superscript to MIC) (H. influenzae [1]; H. influenzae 511343) | Susceptibility category (superscript to MIC) (H. influenzae [1]; H. influenzae 1302002H) | Susceptibility category (superscript to MIC) (H. influenzae [1]; H. influenzae H128) | MIC (H. influenzae [1]; H. influenzae 511343) | MIC (H. influenzae [1]; H. influenzae 1302002H) | MIC (H. influenzae [1]; H. influenzae H128) | Susceptibility category (superscript to MIC) (S. pneumoniae [2]; S. pneumoniae ERY2) | Susceptibility category (superscript to MIC) (S. pneumoniae [2]; S. pneumoniae L11259) | Susceptibility category (superscript to MIC) (S. pneumoniae [2]; S. pneumoniae TPS3) | MIC (S. pneumoniae [2]; S. pneumoniae ERY2) | MIC (S. pneumoniae [2]; S. pneumoniae L11259) | MIC (S. pneumoniae [2]; S. pneumoniae TPS3) | Reduction in bacterial burden compared with controls at baseline (S. pneumoniae [4]; 96 h) | Effect on bacterial burden (S. pneumoniae [4]; [12]) | Susceptibility category (superscript to MIC) (S. aureus [6]; S. aureus A-24) | MIC (S. aureus [6]; S. aureus A-24) | other results
S | R | 0.25 µg/mL (≈ 0.692 µM) | 32 µg/mL (≈ 88.6 µM) | C[C@H]1COc2c(N3CCN(C)CC3)c(F)cc3c(=O)c(C(=O)O)cn1c23 [LVX, levofloxacin] | NS | S | S | 4 µg/mL (≈ 11.1 µM) | 0.06 µg/mL (≈ 0.166 µM) | 0.016 µg/mL (≈ 0.0443 µM) | S | S | R | 1 µg/mL (≈ 2.77 µM) | 1 µg/mL (≈ 2.77 µM) | 32 µg/mL (≈ 88.6 µM) | did not demonstrate any reduction in bacterial burden | highly effective |  |  | Log10 reductions versus the levels at the baseline (H. influenzae [5]; recreated 500-mg LVX profile once daily, two susceptible H. influenzae isolates): 4.2 log10 CFU/lungs and 4.5 log10 CFU/lungs; Efficacy (H. influenzae [5]; recreated 500-mg LVX profile, nonsusceptible H. influenzae strain): ineffective; AUC0–t Human ([7]; 500 mg single oral dose, 24 h interval): 40 µg·h/mL; Cmax Human ([7]; 500 mg single oral dose): 4.3 µg/mL
R | R | 32 µg/mL (≈ 79.7 µM) | > 64 µg/mL | Cc1onc(-c2ccccc2)c1C(=O)N[C@@H]1C(=O)N2[C@@H]1SC(C)(C)[C@@H]2C(=O)O [Oxacillin] |  |  |  |  |  |  |  |  |  |  |  |  |  |  |  |  | 
